Measured values published in US20220226340A1, “CASEIN KINASE 1 INHIBITORS FOR USE IN THE TREATMENT OF DISEASES RELATED TO DUX4 EXPRESSION SUCH AS MUSCULAR DYSTROPHY AND CANCER” (Facio Intellectual Property B.V., priority 2019, published 2022).
Read-outs that look alike come from different tables or passages of the source.

Legend:
CK1δ = CK1δ (Homo sapiens, UniProt P48730); test: CK1δ inhibition IC50; format: biochemical; details: Table 6; read-out: IC50 CK1δ
primary FSHD cells = test: fusion index (myotube fusion) readout of the high-content assay in primary FSHD cells; format: cell-based, human; details: 72 h, CK1 inhibitor combined with losmapimod, microscopic images
From the text: (§1) A quantitative assay readout was developed based on script-based image analysis. […] To analyse the images, an automated script was developed, enabling the detection of nuclei, myotube borders and DUX4 signals, with the script also detecting artefacts to reduce false positive signals. The script enabled multiple validated readouts including the number of DUX4 positive nuclei and nuclei clusters, the fusion index, myotube area, myotube width and myotube skeleton length (see FIG. 2). Additionally, the total nuclei count was included as a measure of cell loss or compound toxicity.
(§2) Compounds are administered either 15 h before fixation, resembling the original screening protocol, or 72 h before fixation (grey arrow). In the latter case, compounds are present during the whole differentiation process.

CK1ε = CK1ε (Homo sapiens, UniProt P49674); test: CK1ε inhibition IC50; format: biochemical; details: Table 6; read-out: IC50 CK1ε
DUX4 [1] = test: high-content immunocytochemistry assay of endogenous DUX4 expression in differentiating primary FSHD myotubes; format: cell-based, human; details: for EC50: Homo sapiens, Myotube, 72 h, 72 h treatment protocol, read-out: DUX4 EC50
From the text: as §1
A compound library containing approximately 5000 annotated compounds was screened in the high-content assay. For this purpose, primary myoblasts were seeded in 384 well plates after which the growth medium was replaced with differentiation medium. After 3 days of differentiation, cells were treated with library compounds (in duplicate on different screening plates) for 15 h, after which they were fixed and stained with antibodies against DUX4, antibodies against myosin heavy chain (MHC), and with DAPI (4′,6-diamidino-2-phenylindole). Script-based analysis provided readouts for DUX4 expression (count of DUX4-positive nuclei or DUX4 intensity) and for potential toxicity (fusion index and nuclei count).
Compounds were incubated with primary FSHD cells for 15 hours, as indicated by the arrow in FIG. 4A.
as §2

DUX4 [2] = details: immortalised differentiated myotube cultures; cited from earlier work
pancreatic tumor cell = details: in vitro and in vivo; cited from earlier work
p38α = p38α (Homo sapiens, UniProt Q16539); test: p38α inhibition IC50; format: biochemical; details: Table 6; read-out: IC50 p38α
Sequence of p38α (Q16539 whole entry): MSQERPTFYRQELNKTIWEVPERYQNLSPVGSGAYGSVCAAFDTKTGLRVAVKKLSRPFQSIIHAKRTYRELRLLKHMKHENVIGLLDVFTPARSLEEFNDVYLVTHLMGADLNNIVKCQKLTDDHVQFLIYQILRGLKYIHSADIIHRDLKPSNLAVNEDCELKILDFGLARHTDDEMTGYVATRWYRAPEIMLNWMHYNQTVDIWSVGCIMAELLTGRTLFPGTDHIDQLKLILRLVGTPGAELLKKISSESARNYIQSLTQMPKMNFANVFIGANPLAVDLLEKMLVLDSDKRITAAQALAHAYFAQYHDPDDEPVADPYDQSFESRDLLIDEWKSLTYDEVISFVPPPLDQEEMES

Sequence of CK1ε (P49674 whole entry): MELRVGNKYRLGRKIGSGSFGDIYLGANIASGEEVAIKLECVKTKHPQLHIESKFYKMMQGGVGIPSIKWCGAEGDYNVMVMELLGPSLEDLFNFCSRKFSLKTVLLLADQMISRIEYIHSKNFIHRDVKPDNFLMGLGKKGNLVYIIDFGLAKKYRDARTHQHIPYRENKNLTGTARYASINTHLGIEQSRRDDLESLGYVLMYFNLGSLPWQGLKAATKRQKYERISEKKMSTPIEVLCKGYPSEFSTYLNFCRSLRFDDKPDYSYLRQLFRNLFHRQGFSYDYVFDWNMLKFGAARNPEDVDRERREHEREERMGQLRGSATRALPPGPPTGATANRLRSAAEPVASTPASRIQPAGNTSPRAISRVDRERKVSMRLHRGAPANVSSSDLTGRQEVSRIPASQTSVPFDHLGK
Sequence of CK1δ (P48730 whole entry, the tested form may be a part): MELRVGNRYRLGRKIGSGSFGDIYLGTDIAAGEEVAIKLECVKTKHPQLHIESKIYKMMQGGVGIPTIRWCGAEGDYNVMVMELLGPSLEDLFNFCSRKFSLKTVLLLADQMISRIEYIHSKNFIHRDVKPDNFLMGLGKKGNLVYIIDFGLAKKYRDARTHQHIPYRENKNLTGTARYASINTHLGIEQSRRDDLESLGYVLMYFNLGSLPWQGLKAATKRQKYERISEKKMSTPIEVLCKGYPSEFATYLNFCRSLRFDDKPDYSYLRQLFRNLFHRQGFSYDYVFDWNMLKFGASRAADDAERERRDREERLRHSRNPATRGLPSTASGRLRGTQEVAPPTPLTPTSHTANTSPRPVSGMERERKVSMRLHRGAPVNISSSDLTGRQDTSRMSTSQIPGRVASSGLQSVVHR

IC50 (CK1δ) [nM]	IC50 (CK1ε) [nM]	EC50 (DUX4 [1]; Table 4) [nM]	EC50 (DUX4 [1]; Table 6) [nM]	IC50 (p38α) [nM]	SMILES	myotube formation in the presence of increasing concentrations of losmapimod (primary FSHD cells)	expression of DUX4 (DUX4 [2])	effect on DUX4 expression (DUX4 [1]; irrespective of treatment time (15 h or 72 h))	pancreatic tumor cell growth (pancreatic tumor cell)	effect on DUX4 (DUX4 [1]; 72 h treatment)
33	52	4800	4800	–	Cn1cc(-c2ccnc3c2C(=O)OC3)c(-c2ccc(F)cc2)n1 [Nr. 4]	myotube formation is still intact	–	–	–	–
–	–	–	–	–	COc1cc(OC)c2c(=O)[nH]c(-c3cc(C)c(OCCO)c(C)c3)nc2c1 [RVX-208, reference compound]	–	can inhibit the expression of DUX4	did not show any effect on DUX4 expression	–	–
–	–	–	–	–	COc1cc(OC)c(C=C2C(O)=Nc3ccccc32)c(OC)c1 [IC261]	–	–	–	reduces pancreatic tumor cell growth	–
16	9	10 to 60	10	15	Fc1ccc(-c2nc3ccc(N4CCNCC4)nn3c2-c2ccncc2)cc1 [Nr. 8]	myotube formation is still intact	–	–	–	near maximal DUX4 inhibition
